# Assay: Normal organ dosimetry Cycle 1: SPECT/CT, TIACs, OLINDA 2.2.3 absorbed radiation dose
# Assay type: in vivo, human
# Conditions: for Absorbed Dose, min / Absorbed Dose, Mean / Absorbed Dose, max / Absorbed Dose, median: Cycle 1
# Description: This Example presents the biodistribution, dosimetry, and pharmacokinetics (PK) results of a PK/Dosimetry sub-study performed as part of a Phase III trial. Twenty-seven (27) patients were administered a target activity of 7.4±10% GBq of ^177Lu-PSMA-I&T and underwent single photon emission computed tomography (SPECT)/computed tomography (CT) imaging at four timepoints (4 h, 24 h, 48 h, and 168 h). Image data was analysed to compute time-activity curves (TACs) and subsequently time-integrated activity coefficients (TIACs) in each organ of interest and in organs showing appreciable and meaningful ^177Lu-PSMA-I&T activity. Organ Level Internal Dose Assessment (OLINDA 2.2.3) was used to compute organ and whole body absorbed radiation doses for each patient.
# All participating sites underwent a rigorous site setup process during which all dose calibrators, scanners, and gamma counters used in the sub-study were calibrated. Sites were allowed to enroll patients in the sub-study only after the completion and approval of all site setup processes by Invicro. Patients underwent SPECT/CT imaging, with anatomical coverage typically extending from the salivary glands to the pelvis, following the administration of a targeted 7.4±10% GBq of ^177Lu-PSMA-I&T at cycle 1. SPECT/CT imaging was performed at four timepoints: 4 h, 24 h, 48 h, and 168 h post-injection. Additionally, a subset of patients imaged at Cycle 1 (16 out of 27), were also imaged at Cycle 3 (Table 2).
# The imaging data was analyzed using Invicro's VivoQuant software, a validated software used in a 21 CFR § 11-compliant workflow. The general quantification approach was based on the principles detailed in the Medical Internal Radiation Dose (MIRD) Pamphlet No. 16, No 23, and No 26 as appropriate.
# Volume of interest (VOI) (kidneys, bladder, liver, lumbar vertebrae L2-L4, lacrimal glands, salivary glands [parotid and submandibular glands], and whole body) were delineated on each dataset by a trained image analyst. […] Organs were segmented either by drawing the entire contour of the organ, or by placing a sphere in a representative region of the organ and then multiplying by the organ's effective mass (based on patient's height and weight). Segmentation methods for each organ are specified in Table 3 and were consistently applied to each patient.
# Clearance of the radiopharmaceutical was derived from a data-appropriate fit of each organ's TAC. Depending on the TAC's shape, the data was fitted with the sum of one, two, or three exponentials, or using a rise and fall model. Fitting was performed with in-house Python software. TIACs were calculated through analytical integration of the curve fit extrapolated to infinity. […] A whole-body TAC was derived from delineating the imaged body. The remainder activity was determined by subtracting the cumulative organ TIACs from the whole body TIAC.
# Organ TIACs were input into OLINDA 2.2.3 for the computation of organ and whole-body absorbed doses, using International Commission on Radiological Protection (ICRP)-103 weighing factors. The ICRP-89 derived male phantom was used for dose estimation. Organs and body mass as defined by ICRP-89 were scaled based on height and mass using patient effective mass.^4 The voiding bladder model as implemented in OLINDA was used to determine bladder TIAC, assuming a voiding interval of 4 hours. The human alimentary tract model (HAT model) described in ICRP 100 and implemented in OLINDA was used to compute doses to the small intestine, right colon, left colon and rectum for patients showing clearance through the GI tract. The fraction of injected activity (fIA) cleared via the GI tract was determined by taking the peak fIA in the GI tract over all the imaging timepoints. […] The Red Marrow mass in L2-L4 was assumed to be 6.7% of the total red marrow mass.
# [1] = Prostate, 16 patients imaged at cycle 1 and 3
# [2] = Rectum, 16 patients imaged at cycle 1 and 3
# [3] = Red Marrow, 16 patients imaged at cycle 1 and 3
# [4] = Right Colon, 16 patients imaged at cycle 1 and 3
# [5] = Salivary Glands, 16 patients imaged at cycle 1 and 3
# [6] = Salivary Glands, n = 26, patient 12-004 excluded
# [7] = Small intestine, 16 patients imaged at cycle 1 and 3
# [8] = Spleen, 16 patients imaged at cycle 1 and 3
smiles,measurement,setting,value
"O=C([O-])CC[C@H](NC(=O)N[C@@H](CCCCNC(=O)CCCCCCC(=O)NCCCC[C@@H](NC(=O)[C@@H](Cc1ccccc1)NC(=O)[C@@H](Cc1ccc(O)c(I)c1)NC(=O)CC[C@H](C(=O)[O-])N1CCN(CC(=O)[O-])CCN(CC(=O)[O-])CCN(CC(=O)[O-])CC1)C(=O)[O-])C(=O)[O-])C(=O)[O-].[177Lu+3].[H+].[H+].[H+].[H+].[H+] [^177Lu-PSMA I&T, (3S,7S,26R,29R,32R,37R)-29-benzyl-32-(4-hydroxy-3-iodobenzyl)-5,13,20,28,31,34-hexaoxo-37-(4,7,10-tris(carboxymethyl)-1,4,7,10-tetraazacyclododecan-1-yl)-4,6,12,21,27,30,33-heptaazaheptatriacontane-1,3,7,26,37-pentacarboxylic acid; lutetium-177 (III)]","Absorbed Dose, min","Pancreas, n = 26",0.00 Gy/GBq
same,"Absorbed Dose in Cycle 1, Mean","Pancreas, N = 16",0.02 Gy/GBq
same,"Absorbed Dose in Cycle 1, max","Pancreas, N = 16",0.07 Gy/GBq
same,"Absorbed Dose in Cycle 1, min","Pancreas, N = 16",0.00 Gy/GBq
same,"Absorbed Dose in Cycle 1, Mean",[1],0.02 Gy/GBq
same,"Absorbed Dose in Cycle 1, max",[1],0.07 Gy/GBq
same,"Absorbed Dose in Cycle 1, min",[1],0.01 Gy/GBq
same,"Absorbed Dose, Mean","Prostate, n = 26",0.02 Gy/GBq
same,"Absorbed Dose, max","Prostate, n = 26",0.07 Gy/GBq
same,"Absorbed Dose, median","Prostate, n = 26",0.01 Gy/GBq
same,"Absorbed Dose, min","Prostate, n = 26",0.01 Gy/GBq
same,"Absorbed Dose in Cycle 1, Mean","Prostate, N = 16",0.02 Gy/GBq
same,"Absorbed Dose in Cycle 1, max","Prostate, N = 16",0.07 Gy/GBq
same,"Absorbed Dose in Cycle 1, min","Prostate, N = 16",0.01 Gy/GBq
same,"Absorbed Dose in Cycle 1, Mean",[2],0.50 Gy/GBq
same,"Absorbed Dose in Cycle 1, max",[2],1.46 Gy/GBq
same,"Absorbed Dose in Cycle 1, min",[2],0.01 Gy/GBq
same,"Absorbed Dose, Mean","Rectum, n = 26",0.44 Gy/GBq
same,"Absorbed Dose, max","Rectum, n = 26",1.46 Gy/GBq
same,"Absorbed Dose, median","Rectum, n = 26",0.39 Gy/GBq
same,"Absorbed Dose, min","Rectum, n = 26",0.01 Gy/GBq
same,"Absorbed Dose in Cycle 1, Mean","Rectum, N = 16",0.50 Gy/GBq
same,"Absorbed Dose in Cycle 1, max","Rectum, N = 16",1.46 Gy/GBq
same,"Absorbed Dose in Cycle 1, min","Rectum, N = 16",0.01 Gy/GBq
same,"Absorbed Dose in Cycle 1, Mean",[3],0.05 Gy/GBq
same,"Absorbed Dose in Cycle 1, max",[3],0.28 Gy/GBq
same,"Absorbed Dose in Cycle 1, min",[3],0.00 Gy/GBq
same,"Absorbed Dose, Mean","Red Marrow, n = 26",0.08 Gy/GBq
same,"Absorbed Dose, max","Red Marrow, n = 26",0.49 Gy/GBq
same,"Absorbed Dose, median","Red Marrow, n = 26",0.03 Gy/GBq
same,"Absorbed Dose, min","Red Marrow, n = 26",0.00 Gy/GBq
same,"Absorbed Dose in Cycle 1, Mean","Red Marrow, N = 16",0.05 Gy/GBq
same,"Absorbed Dose in Cycle 1, max","Red Marrow, N = 16",0.28 Gy/GBq
same,"Absorbed Dose in Cycle 1, min","Red Marrow, N = 16",0.00 Gy/GBq
same,"Absorbed Dose in Cycle 1, Mean",[4],0.28 Gy/GBq
same,"Absorbed Dose in Cycle 1, max",[4],0.82 Gy/GBq
same,"Absorbed Dose in Cycle 1, min",[4],0.01 Gy/GBq
same,"Absorbed Dose, Mean","Right Colon, n = 26",0.25 Gy/GBq
same,"Absorbed Dose, max","Right Colon, n = 26",0.82 Gy/GBq
same,"Absorbed Dose, median","Right Colon, n = 26",0.22 Gy/GBq
same,"Absorbed Dose, min","Right Colon, n = 26",0.01 Gy/GBq
same,"Absorbed Dose in Cycle 1, Mean","Right Colon, N = 16",0.28 Gy/GBq
same,"Absorbed Dose in Cycle 1, max","Right Colon, N = 16",0.82 Gy/GBq
same,"Absorbed Dose in Cycle 1, min","Right Colon, N = 16",0.01 Gy/GBq
same,"Absorbed Dose in Cycle 1, Mean",[5],0.17 Gy/GBq
same,"Absorbed Dose in Cycle 1, max",[5],0.80 Gy/GBq
same,"Absorbed Dose in Cycle 1, min",[5],0.03 Gy/GBq
same,"Absorbed Dose, Mean",[6],0.19 Gy/GBq
same,"Absorbed Dose, max",[6],0.80 Gy/GBq
same,"Absorbed Dose, median",[6],0.15 Gy/GBq
same,"Absorbed Dose, min",[6],0.03 Gy/GBq
same,"Absorbed Dose in Cycle 1, Mean","Salivary Glands, N = 16",0.17 Gy/GBq
same,"Absorbed Dose in Cycle 1, max","Salivary Glands, N = 16",0.80 Gy/GBq
same,"Absorbed Dose in Cycle 1, min","Salivary Glands, N = 16",0.03 Gy/GBq
same,"Absorbed Dose in Cycle 1, Mean",[7],0.06 Gy/GBq
same,"Absorbed Dose in Cycle 1, max",[7],0.15 Gy/GBq
same,"Absorbed Dose in Cycle 1, min",[7],0.01 Gy/GBq
same,"Absorbed Dose, Mean","Small intestine, n = 26",0.05 Gy/GBq
same,"Absorbed Dose, max","Small intestine, n = 26",0.15 Gy/GBq
same,"Absorbed Dose, median","Small intestine, n = 26",0.04 Gy/GBq
same,"Absorbed Dose, min","Small intestine, n = 26",0.01 Gy/GBq
same,"Absorbed Dose in Cycle 1, Mean","Small intestine, N = 16",0.06 Gy/GBq
same,"Absorbed Dose in Cycle 1, max","Small intestine, N = 16",0.15 Gy/GBq
same,"Absorbed Dose in Cycle 1, min","Small intestine, N = 16",0.01 Gy/GBq
same,"Absorbed Dose in Cycle 1, Mean",[8],0.03 Gy/GBq
same,"Absorbed Dose in Cycle 1, max",[8],0.11 Gy/GBq
same,"Absorbed Dose in Cycle 1, min",[8],0.01 Gy/GBq

# Reference: patent US20250032651A1, “[177LU] LUTETIUM-PSMA I&T COMPOSITION AND DOSIMETRY, KIT, METHOD OF MAKING, AND METHOD OF USING THEREOF” (Curium US LLC, priority 2022, published 2025)
